Like-named read-outs stand apart in the source and are kept apart here. Where a SMILES comes first, the peptide text is derived from it. [ ]: non-standard residue; d: D form. ξ: configuration not given here. ξLac(3-iPr) = CC(C)CC(O)C(=O)O; NMeV = CN[CH](C(=O)O)C(C)C; NMeA = CN[CH](C)C(=O)O; βAla = NCCC(=O)O
Key:
Zika virus = experiment: Zika viral production assay (infectious viral titer assay on Vero cells); assay type: cell-based; settings: read-out: Anti-ZIKV activity IC50
dengue virus = experiment: Western blot analysis of viral protein levels in dengue virus-infected cells; assay type: cell-based
Experimental: These 19 compounds were further validated for antiviral activity by a Zika viral production assay and also by analyzing protein production via Western blot in dengue virus-infected cells. Human glioblastoma cells were treated with individual compounds for 1 hour prior to infection with Zika virus or dengue virus for 24 hours. After 24 hours, cellular lysate was harvested for Western blot analysis of viral protein levels (DENV infection), or supernatant collected and used to infect Vero cells in an infectious viral titer assay (ZIKV infection).

[1] = Zika virus, human glioblastoma cells treated 1 hour prior to infection, 24 hours, supernatant titered on Vero cells, values in E-notation, unit inferred
[2] = 1 uM, SNB-19 human glioblastoma cells, compound 1 hour prior to infection, 24 hours infection, Western blot of viral protein
[3] = 10 uM, SNB-19 human glioblastoma cells, compound 1 hour prior to infection, 24 hours infection, Western blot of viral protein
[4] = Zika virus, human glioblastoma cells treated 1 hour prior to infection, 24 hours, supernatant titered on Vero cells, μM

| SMILES | IC50 (Zika virus; [1]) [µM] | Anti-DENV Activity at 1 uM (SNB-19 cells) (dengue virus; [2]) | Anti-DENV Activity at 10 uM (SNB-19 cells) (dengue virus; [3]) | other results |
| --- | --- | --- | --- | --- |
| CCOC(=O)c1ccc(N2C(=O)c3[nH]nc(-c4ccco4)c3C2c2ccc(C)cc2)cc1 (centres unmarked) [NCGC00108581-01, ethyl 4-(3-(furan-2-yl)-6-oxo-4-(p-tolyl)-4,6-dihydropyrrolo[3,4-c]pyrazol-5(1H)-yl)benzoate] | 2.42 | No | Yes |  |
| O=c1nc[nH]c2c1ccn2C1OC(CO)C(O)C1O (centres unmarked) [NCGC00246910-02, 7-(3,4-dihydroxy-5-(hydroxymethyl)tetrahydrofuran-2-yl)-1,7-dihydro-4H-pyrrolo[2,3-d]pyrimidin-4-one] | 0.27 | No | Yes |  |
| CC(=O)OC[C@]12C[C@H](OC(=O)CC(C)C)C(C)=C[C@H]1O[C@@H]1[C@H](O)[C@@H](OC(C)=O)[C@@]2(C)[C@]12CO2 [NCGC00387651-01, (2S,2′R,3′R,4′S,5′S,5a′R,7′S,9a′R)-4′-acetoxy-5a′-(acetoxymethyl)-3′-hydroxy-5′,8′-dimethyl-2′,3′,4′,5′,5a′,6′,7′,9a′-octahydrospiro[oxirane-2,10′-[2,5]methanobenzo[b]oxepin]-7′-yl 3 - methylbutanoate] |  |  |  | Anti-DENV Activity at 1 uM (SNB-19 cells) (dengue virus): Yes; Anti-DENV Activity at 10 uM (SNB-19 cells) (dengue virus): Yes |
| CC(=O)OC[C@]12CCC(C)=C[C@H]1O[C@@H]1[C@H](O)[C@@H](OC(C)=O)[C@@]2(C)[C@]12CO2 [NCGC00179895-03, ((2S,2′R,3′R,4′S,5′S,5a′R,9a′R)-4′-acetoxy-3′-hydroxy-5′,8′-dimethyl-2′,3′,4′,5′,7′,9a′-hexahydrospiro[oxirane-2,10′-[2,5]methanobenzo[b]oxepin]-5a′(6′H) - yl)methyl acetate] |  |  |  | Anti-DENV Activity at 1 uM (SNB-19 cells) (dengue virus): Yes; Anti-DENV Activity at 10 uM (SNB-19 cells) (dengue virus): Yes |
| COC(=O)c1cc2occc2n1Cc1nc(-c2ccc(C)cc2)oc1C [NCGC00113159-01, methyl 4-[[5-methyl-2-(4-methylphenyl)-1,3-oxazol-4-yl]methyl]furo[3,2-b]pyrrole-5 - carboxylate] |  | No | No | IC50 (Zika virus; [4]): > 30 µM |
| COc1cc2c(c(OC)c1OC)-c1ccc(OC)c(=O)cc1[C@@H](NC(C)=O)CC2 [NCGC00025125-18, N-[(7S)-1,2,3,10-tetramethoxy-9-oxo-6,7-dihydro-5H-benzo[a]heptalen-7-yl]acetamide] |  | No | No |  |
| O=C1N[C@@H]2C(=C[C@H](O)[C@@H](O)[C@H]2O)c2cc3c(c(O)c21)OCO3 [NCGC00357393-02, (2S,3R,4S,4aR)-2,3,4,7-tetrahydroxy-3,4,4a,5-tetrahydro-[1,3]dioxolo[4,5-j] phenanthridin-6(2H)-one] |  |  |  | IC50 (Zika virus): 0.000674 µM; Anti-DENV Activity at 1 uM (SNB-19 cells) (dengue virus; 1 uM): Yes; Anti-DENV Activity at 10 uM (SNB-19 cells) (dengue virus; 10 uM): Yes |
| CC(C)(C)c1ccc(C(=O)Nc2ccc3c(c2)CCCN3C(=O)c2cccs2)cc1 [NCGC00131231-01, 4-(tert-butyl)-N-(1-(thiophene-2-carbonyl)-1,2,3,4-tetrahydroquinolin-6-yl)benzamide] | 7.6 | No | No |  |
| COCCn1c(=O)[nH]c2cc(C(=O)NCc3ccccc3Cl)ccc2c1=O [NCGC00104879-01, N-(2-chlorobenzyl)-3-(2-methoxyethyl)-2,4-dioxo-1,2,3,4-tetrahydroquinazoline-7-carboxamide] |  | No | No | IC50 (Zika virus; [4]): > 30 µM |
| O=C(Nc1cccnc1)c1cccs1 [NCGC00072088-02, N-(pyridin-3-yl)thiophene-2-carboxamide] | 2.35 | No | Yes |  |
| CCC(C)C1NC(=O)C2CCCN2C(=O)C(CC(C)C)OC(=O)CCNC(=O)C(C)N(C)C(=O)C(C(C)C)N(C)C1=O (centres unmarked) [NCGC00169957-03, 3-(sec-butyl)-16-isobutyl-6-isopropyl-5,8,9-trimethyldodecahydropyrrolo[1,2-d][l]oxa[4,7,10,13,16] pentaazacyclononadecine-1,4,7,10,14,17(11H,16H)-hexaone] (cyclo([ξLac(3-iPr)]PI[NMeV][NMeA][βAla]); configuration not given here) |  |  |  | IC50 (Zika virus; Zika virus, Vero): 0.613 µM; Anti-DENV Activity at 1 uM (SNB-19 cells) (dengue virus; 1 uM): No; Anti-DENV Activity at 10 uM (SNB-19 cells) (dengue virus; 10 uM): Yes |
| CCOC(=O)c1ccc(N2C(=O)c3[nH]nc(-c4ccc(OC)cc4)c3C2c2ccc(C)cc2)cc1 (centres unmarked) [NCGC00108525-01, ethyl 4-(3-(4-methoxyphenyl)-6-oxo-4-(p-tolyl)-4,6-dihydropyrrolo[3,4-c]pyrazol-5(1H)-yl)benzoate] |  | No | Yes | IC50 (Zika virus; Zika virus, Vero): 0.137 µM |
| O=c1[nH]c(=O)n(C2C[C@@H](O)[C@@H](CO)O2)cc1F (stereo partly drawn) [NCGC00263862-02, 5-fluoro-l-((4R,5R)-4-hydroxy-5-(hydroxymethyl)tetrahydrofuran-2-yl)pyrimidine-2,4(1H,3H)-dione] | 0.0165 | No | No |  |
| CC[C@H](C)[C@@H]([C@@H](CC(=O)N1CCC[C@H]1[C@H](OC)[C@@H](C)C(=O)N[C@@H](Cc1ccccc1)c1nccs1)OC)N(C)C(=O)[C@@H](NC(=O)[C@H](C(C)C)N(C)C)C(C)C [NCGC00378623-01, (S)-2-((S)-2-(dimethylamino)-3-methylbutanamido)-N-((3R,4S,5S)-3-methoxy-1-((S)-2-((1R,2R)-1-methoxy-2-methyl-3-oxo-3-(((S)-2-phenyl-1-(thiazol-2-yl)ethyl)amino)propyl)pyrrolidin-1-yl)-5-methyl-1-oxoheptan-4-yl)-N,3-dimethylbutanamide] |  | No | No |  |
| COc1cc(C2CC(=O)Nc3cc4c(cc32)OCCO4)cc(Br)c1OC (centres unmarked) [NCGC00107055-01, 9-(3-bromo-4,5-dimethoxyphenyl)-2,3,8,9-tetrahydro-[1,4]dioxino[2,3-g]quinolin-7(6H)-one] | 0.0285 | No | No |  |
| CCOc1ccc(N2C(=O)c3[nH]nc(-c4cccs4)c3C2c2cccc(F)c2)cc1 (centres unmarked) [NCGC00102779-01, 5-(4-ethoxyphenyl)-4-(3-fluorophenyl)-3-(thiophen-2-yl)-4,5-dihydropyrrolo[3,4-c]pyrazol-6(lH)-one] | 9.24 | No | No |  |
| CCCOc1ccc2nc(NC(=O)OC)[nH]c2c1 [NCGC00018238-09, methyl (6-propoxy-1H-benzo[d]imidazol-2 - yl)carbamate] | 0.000233 | No | No |  |
| CC1=Nc2cc(C(=O)NCc3ccccc3Cl)ccc2Sc2c(C)ccc(C)c21 [NCGC00112058-01, N-(2-chlorobenzyl)-1,4,11-trimethyldibenzo[b,f][1,4]thiazepine-8-carboxamide] |  | No | No | IC50 (Zika virus; [4]): > 30 µM |
| COc1ccccc1-c1nnc2sc(-c3ccc(N(C)C)cc3)nn12 [NCGC00071621-03, 4-(3-(2-methoxyphenyl)-[1,2,4]triazolo[3,4-b][1,3,4]thiadiazol-6-yl)-N,N-dimethylaniline] |  |  |  | IC50 (Zika virus; Zika virus, Vero): > 30 µM; Anti-DENV Activity at 1 uM (SNB-19 cells) (dengue virus; 1 uM): No; Anti-DENV Activity at 10 uM (SNB-19 cells) (dengue virus; 10 uM): No |
